Holding throughout (assay type): functional
For assay [1], the species on record is Mus musculus. Description: Inhibitory activity against LPS-induced NO production in mouse peritoneal macrophages was evaluated.
The species entered for assay [2] is Rattus norvegicus. Description: Inhibitory activity against D-GalN-induced cytotoxicity in rat hepatocytes at 100 uM. The settings on record: Hepatocyte.
Assay [3] is filed under the species Mus musculus. Description: Inhibitory activity from the roots of Angelica furcijuga on LPS-induced NO production in mouse peritoneal macrophages was evaluated at 100 uM.
The species named for assay [4] is Rattus norvegicus. Description: Inhibitory activity against D-GalN-induced cytotoxicity in rat hepatocytes. The settings on record: Hepatocyte.
For assay [5], the species on record is Mus musculus. Description: Inhibitory activity against LPS-induced NO production in mouse peritoneal macrophages was evaluated at 100 uM.

As for `CC(C)(O)[C@H](O)Cc1cc2ccc(=O)oc2cc1O[C@@H]1O[C@H](CO)[C@@H](O)[C@H](O)[C@H]1O`, the IC50 in the assay listed under Mus musculus [1] and in the assay listed under Rattus norvegicus [4] was above 100 µM throughout. Also, the inhibition at 100 µM in the assay filed under Rattus norvegicus [2] was found to be 5.8%; in the assay filed under Mus musculus [3] it was 49%.
As for `CC(C)(O)C1Cc2cc(CCC(=O)O)c(O[C@@H]3O[C@H](CO)[C@@H](O)[C@H](O)[C@H]3O)cc2O1` (stereo partly drawn), the IC50 in the assay filed under Mus musculus [1] and in the assay listed under Rattus norvegicus [4] was above 100 µM throughout. In addition, the inhibition at 100 µM in the assay filed under Rattus norvegicus [2] was found to be 0.6%; in the assay listed under Mus musculus [3], 32%.
Turning to `CC1(C)Oc2ccc3ccc(=O)oc3c2C[C@H]1O[C@@H]1O[C@H](CO)[C@@H](O)[C@H](O)[C@H]1O`, the IC50 in the assay listed under Mus musculus [1] and in the assay listed under Rattus norvegicus [4] was above 100 µM throughout. Further, the inhibition at 100 µM in the assay filed under Rattus norvegicus [2] amounted to 1.4%; in the assay listed under Mus musculus [3], 21%.
As to `COc1cc(C(O)C(CO)Oc2ccc(/C=C/CO[C@@H]3O[C@H](CO)[C@@H](O)[C@H](O)[C@H]3O)cc2OC)ccc1O` (stereo partly drawn), in the assay listed under Mus musculus [1], the IC50 was above 100 µM and the Inhibition is recorded as -26%. The inhibition at 100 µM in the assay filed under Rattus norvegicus [2] is -0.2%. For the same compound, in the assay filed under Rattus norvegicus [4], the IC50 is above 100 µM.
Turning to `C/C=C(\C)C(=O)O[C@@H]1[C@H](OC(=O)C(C)C)c2c(ccc3ccc(=O)oc23)OC1(C)C`, the IC50 in the assay listed under Mus musculus [1] is 8.8 µM; in the assay filed under Rattus norvegicus [4], above 100 µM. The inhibition at 100 µM in the assay filed under Rattus norvegicus [2] worked out at 10%.
For `C/C=C(\C)C(=O)O[C@@H]1[C@H](OC(=O)C(C)CC)c2c(ccc3ccc(=O)oc23)OC1(C)C` (stereo partly drawn), the IC50 was 5.1 µM in the assay listed under Mus musculus [1] and above 100 µM in the assay listed under Rattus norvegicus [4]. Besides, the inhibition at 100 µM in the assay listed under Rattus norvegicus [2] was -0.5%.
For the compound `O=c1ccc2ccc(O[C@@H]3O[C@H](COC4OC[C@](O)(CO)[C@H]4O)[C@@H](O)[C@H](O)[C@H]3O)cc2o1` (stereo partly drawn), the IC50 in the assay filed under Mus musculus [1] and in the assay listed under Rattus norvegicus [4] was above 100 µM throughout. Besides, the inhibition at 100 µM in the assay filed under Rattus norvegicus [2] is -2.1%; in the assay filed under Mus musculus [3], 36%.
On to `CCC(C)C(=O)O[C@@H]1c2c(ccc3ccc(=O)oc23)OC(C)(C)[C@@H]1OC(C)=O` (stereo partly drawn), for which the IC50 in the assay filed under Mus musculus [1] is 8.2 µM; in the assay filed under Rattus norvegicus [4], above 100 µM. Further, in the assay listed under Rattus norvegicus [2], the inhibition at 100 µM is -2.5%.
With `CC1(C)Oc2ccc3ccc(=O)oc3c2[C@@H](O)[C@H]1O`, the IC50 in the assay listed under Mus musculus [1] was 91 µM; in the assay filed under Rattus norvegicus [4], above 100 µM. Also, the inhibition at 100 µM in the assay listed under Rattus norvegicus [2] was 6.5%.
In the case of `CC(=O)O[C@@H]1c2c(ccc3ccc(=O)oc23)OC(C)(C)[C@@H]1OC(=O)C1(C)OC1C` (stereo partly drawn), the figures for the IC50 in the assay listed under Mus musculus [1] and in the assay filed under Rattus norvegicus [4] were 53 µM and 29 µM, respectively.
Take `C=C[C@@H](O)C#CC#CC/C=C\CCCCCCC`: the values for the IC50 in the assay filed under Mus musculus [1] and in the assay listed under Rattus norvegicus [4] were 4.8 µM and above 100 µM, respectively. Moreover, the inhibition at 100 µM in the assay filed under Rattus norvegicus [2] was -0.6%.
Regarding `C/C=C(\C)C(=O)O[C@@H]1c2c(ccc3ccc(=O)oc23)OC(C)(C)[C@@H]1OC(=O)/C(C)=C/C`, the values for the IC50 in the assay listed under Mus musculus [1] and in the assay filed under Rattus norvegicus [4] were 3.4 µM and above 100 µM, respectively. The inhibition at 100 µM in the assay filed under Rattus norvegicus [2] worked out at 2.8%.
Turning to `CC1(C)Oc2ccc3ccc(=O)oc3c2[C@H](O)[C@H]1O`, the IC50 in the assay listed under Mus musculus [1] and in the assay listed under Rattus norvegicus [4] was above 100 µM in each case. Also, the inhibition at 100 µM in the assay filed under Rattus norvegicus [2] was determined as 1.5%; in the assay listed under Mus musculus [5] it was 36%.
With `C/C=C(\C)C(=O)O[C@@H]1[C@H](OC(C)=O)c2c(ccc3ccc(=O)oc23)OC1(C)C`, the IC50 is 8.8 µM in the assay listed under Mus musculus [1] and above 100 µM in the assay listed under Rattus norvegicus [4]. For the same compound, the inhibition at 100 µM in the assay filed under Rattus norvegicus [2] worked out at 13%.
As to `COc1c2ccoc2cc2oc(=O)ccc12` [BERGAPTEN], the IC50 in the assay filed under Mus musculus [1] and in the assay filed under Rattus norvegicus [4] was above 100 µM in each case. Besides, the inhibition at 100 µM in the assay listed under Rattus norvegicus [2] is 23%; in the assay listed under Mus musculus [3], 49%.
Regarding `C=C[C@@H](O)C#CC#C[C@@H](O)/C=C\CCCCCCC` [FALCARINDIOL], the values for the IC50 in the assay filed under Mus musculus [1] and in the assay filed under Rattus norvegicus [4] were 4.4 µM and above 100 µM, respectively. For the same compound, the inhibition at 100 µM in the assay listed under Rattus norvegicus [2] was -33%.
For `C/C=C(\C)C(=O)O[C@@H]1c2c(ccc3ccc(=O)oc23)OC(C)(C)[C@@H]1OC(C)=O` [PTERYXIN], in that order: 20 µM, above 100 µM and 4.4%.
Regarding `CC(=O)O[C@@H]1[C@H](OC(=O)C(C)C)c2c(ccc3ccc(=O)oc23)OC1(C)C` [SERAVSHANIN], the values for the IC50 in the assay listed under Mus musculus [1] and in the assay listed under Rattus norvegicus [4] were 4.2 µM and above 100 µM, respectively. For the same compound, in the assay filed under Rattus norvegicus [2], the inhibition at 100 µM is -2.2%.
As for `CC(=O)O[C@@H]1[C@H](OC(=O)CC(C)C)c2c(ccc3ccc(=O)oc23)OC1(C)C` [SUKSDORFIN], the 50% inhibitory concentration (IC50) in the assay listed under Mus musculus [1] is 11 µM; in the assay listed under Rattus norvegicus [4], above 100 µM. The inhibition at 100 µM in the assay listed under Rattus norvegicus [2] was -3.4%.

Usually IC50 stands for the concentration needed to halve the response being measured. Usually inhibition stands for the relative decrease from the control value, in per cent. Broadly, the Inhibition is the change of the read-out against control, counted positive when it falls.
